This is an account of results in patent publication US9604996B2 (Bayer Pharma Aktiengesellschaft, priority 2013, dated 2017).

The assay addresses T1, human adenosine A2b receptor (Homo sapiens, UniProt P29275).
T1 construct: expressed in transfected cells; host or cells: CHO-K1 (Chinese Hamster Ovary) with CRE-luciferase reporter
T1 sequence (P29275 1-332): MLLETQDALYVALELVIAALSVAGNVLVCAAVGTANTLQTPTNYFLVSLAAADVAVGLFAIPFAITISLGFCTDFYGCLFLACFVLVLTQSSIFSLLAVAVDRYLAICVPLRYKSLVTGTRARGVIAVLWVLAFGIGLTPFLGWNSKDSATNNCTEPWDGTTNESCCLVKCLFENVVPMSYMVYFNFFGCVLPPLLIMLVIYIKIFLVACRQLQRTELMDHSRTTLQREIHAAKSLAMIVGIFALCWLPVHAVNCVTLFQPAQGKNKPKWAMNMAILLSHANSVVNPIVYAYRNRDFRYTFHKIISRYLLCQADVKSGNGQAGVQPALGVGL
Nature of the assay: Cellular reporter gene (CRE-luciferase) A2b receptor antagonist assay in recombinant CHO-K1 cells stimulated with NECA. The conditions noted are these: recombinant CHO-K1 cell line, co-incubation with EC50 concentration of NECA, 3 hours, in some cases means, rounded to two significant digits. Type of assay: cell-based. The essentials:
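CHO-K1 cells expressing human A2b receptor with a CRE-driven firefly luciferase reporter, co-incubated with test compound and NECA at its same-day EC50 concentration. Luminescence read 3 hours after NECA addition.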
A word on the IC50: it is the concentration needed to halve the response being measured. On to `Cc1c(C(=O)N2CCC(O)CC2)sc2c1c(=O)n(CCC=C(F)F)c(=O)n2CCC(F)(F)F` [Example 106, 3-(4,4-Difluorobut-3-en-1-yl)-6-[(4-hydroxypiperidin-1-yl)carbonyl]-5-methyl-1-(3,3,3-trifluoropropyl)thieno [2,3-d]pyrimidine-2,4(1H,3H)-dione], for which the half-inhibitory concentration (IC50) is 19 nM.

Turning to `Cc1c(C(=O)N2CCNC(=O)C2)sc2c1c(=O)n(CCc1ccccc1F)c(=O)n2CCC=C(F)F` [Example 30, 1-(4,4-Difluorobut-3-en-1-yl)-3-[2-(2-fluorophenyl)ethyl]-5-methyl-6-[(3-oxopiperazin-1-yl)carbonyl]thieno[2,3-d]pyrimidine-2,4(1H,3H)-dione], the IC50 was found to be 53 nM.

Consider `COC(Cn1c(=O)c2c(C)c(C(=O)N3CCC(O)(CO)CC3)sc2n(CCC(F)(F)F)c1=O)C(F)(F)F` (racemic) [Example 81, 6-{[4-Hydroxy-4-(hydroxymethyl)piperidin-1-yl]carbonyl}-5-methyl-3-(3,3,3-trifluoro-2-methoxypropyl)-1-(3,3,3-trifluoropropyl)thieno[2,3-d]pyrimidine-2,4(1H,3H)-dione], for which the 50% inhibitory concentration (IC50) came to 170 nM.

With `Cc1c(C(=O)N2CCC(O)CC2)sc2c1c(=O)n(CC(C)(O)c1ccccc1)c(=O)n2CCC(F)(F)F` (racemic) [Example 105, 3-(2-Hydroxy-2-phenylpropyl)-6-[(4-hydroxypiperidin-1-yl)carbonyl]-5-methyl-1-(3,3,3-trifluoropropyl)thieno[2,3-d]pyrimidine-2,4(1H,3H)-dione], the half-inhibitory concentration (IC50) turned out to be 69 nM.

Turning to `CCn1c(=O)c2c(C)c(C(=O)N3CC4CCCC(C3)C4O)sc2n(CCC(F)(F)F)c1=O` (stereo not drawn) [Example 72, 3-Ethyl-6-[(9-hydroxy-3-azabicyclo[3.3.1]non-3-yl)carbonyl]-5-methyl-1-(3,3,3-trifluoropropyl)thieno[2,3-d]pyrimidine-2,4(1H,3H)-dione (α-epimer)], the IC50 was 17 nM.

Consider `Cc1c(C(=O)N2CCC(O)CC2)sc2c1c(=O)n(CCc1ccccc1Cl)c(=O)n2CCC=C(F)F` [Example 7, 3-[2-(2-Chlorophenyl)ethyl]-1-(4,4-difluorobut-3-en-1-yl)-6-[(4-hydroxypiperidin-1-yl)carbonyl]-5-methylthieno[2,3-d]pyrimidine-2,4(1H,3H)-dione], for which the half-inhibitory concentration (IC50) came out at 110 nM.

For `Cc1c(C(=O)N2CCC(O)CC2)sc2c1c(=O)n(CC(O)c1ccccc1)c(=O)n2CCC(F)(F)F` (single isomer, unassigned) [Example 100, 3-(2-Hydroxy-2-phenylethyl)-6-[(4-hydroxypiperidin-1-yl)carbonyl]-5-methyl-1-(3,3,3-trifluoropropyl)thieno[2,3-d]pyrimidine-2,4(1H,3H)-dione], the half-maximal inhibitory concentration (IC50) amounted to 29 nM.

On to `Cc1c(C(=O)N2CCC(O)(CO)CC2)sc2c1c(=O)n(CCc1ccccc1)c(=O)n2CCC(F)(F)F` [Example 68, 6-{[4-Hydroxy-4-(hydroxymethyl)piperidin-1-yl]carbonyl}-5-methyl-3-(2-phenylethyl)-1-(3,3,3-trifluoropropyl)thieno[2,3-d]pyrimidine-2,4(1H,3H)-dione], for which the IC50 came out at 20 nM.

In the case of `O=C(c1cc2c(=O)n(CCc3ccccc3)c(=O)n(CCC(F)(F)F)c2s1)N1CCC(O)CC1` [Example 90, 6-[(4-Hydroxypiperidin-1-yl)carbonyl]-3-(2-phenylethyl)-1-(3,3,3-trifluoropropyl)thieno[2,3-d]pyrimidine-2,4(1H,3H)-dione], the IC50 is 440 nM.

For the compound `CCC1C(=O)NCCN1C(=O)c1sc2c(c1C)c(=O)n(CC)c(=O)n2CCC(F)(F)F` (racemic) [Example 40, 3-Ethyl-6-[(2-ethyl-3-oxopiperazin-1-yl)carbonyl]-5-methyl-1-(3,3,3-trifluoropropyl)thieno[2,3-d]pyrimidine-2,4(1H,3H)-dione (racemate)], the IC50 is 230 nM.

As for `CCn1c(=O)c2c(C)c(C(=O)N3CCC(O)(CC)CC3)sc2n(CCC(F)(F)F)c1=O` [Example 113, 3-Ethyl-6-[(4-ethyl-4-hydroxypiperidin-1-yl)carbonyl]-5-methyl-1-(3,3,3-trifluoropropyl)thieno[2,3-d]pyrimidine-2,4(1H,3H)-dione], the IC50 stood at 70 nM.

For `Cc1c(C(=O)N2CCC(O)CC2)sc2c1c(=O)n(CC(c1ccccc1)C(F)(F)F)c(=O)n2CCC(F)(F)F` (racemic) [Example 104, 6-[(4-Hydroxypiperidin-1-yl)carbonyl]-5-methyl-3-(3,3,3-trifluoro-2-phenylpropyl)-1-(3,3,3-trifluoropropyl)thieno[2,3-d]pyrimidine-2,4(1H,3H)-dione], the concentration for half-maximal inhibition (IC50) was 9.1 nM.

Take `CCn1c(=O)c2c(CF)c(C(=O)N3CCC(O)CC3)sc2n(CCC(F)(F)F)c1=O` [Example 143, 3-Ethyl-5-(fluoromethyl)-6-[(4-hydroxypiperidin-1-yl)carbonyl]-1-(3,3,3-trifluoropropyl)thieno[2,3-d]pyrimidine-2,4(1H,3H)-dione]: the half-maximal inhibitory concentration (IC50) came out at 82 nM.

Regarding `CCn1c(=O)c2c(C(F)F)c(C(=O)N3CCC(C)(O)CC3)sc2n(CCOC(F)(F)F)c1=O` [Example 127, 5-(Difluoromethyl)-3-ethyl-6-[(4-hydroxy-4-methylpiperidin-1-yl)carbonyl]-1-[2-(trifluoromethoxy)ethyl]thieno[2,3-d]pyrimidine-2,4(1H,3H)-dione], the IC50 came out at 9.5 nM.

As to `CCCn1c(=O)c2c(C)c(C(=O)N3CCC(O)(CO)CC3)sc2n(CCC(F)(F)F)c1=O` [Example 77, 6-{[4-Hydroxy-4-(hydroxymethyl)piperidin-1-yl]carbonyl}-5-methyl-3-propyl-1-(3,3,3-trifluoropropyl)thieno[2,3-d]pyrimidine-2,4(1H,3H)-dione], the IC50 was determined as 75 nM.

Take `COC(Cn1c(=O)c2c(C)c(C(=O)N3CCC(O)CC3)sc2n(CCC(F)(F)F)c1=O)c1ccccc1` (single isomer, unassigned; enantiomer 2) [Example 47, 6-[(4-Hydroxypiperidin-1-yl)carbonyl]-3-(2-methoxy-2-phenylethyl)-5-methyl-1-(3,3,3-trifluoropropyl)thieno[2,3-d]pyrimidine-2,4(1H,3H)-dione (enantiomer 2)]: the IC50 was 4.4 nM.

Regarding `CCn1c(=O)c2c(C)c(C(=O)N3CCC(O)C(O)C3)sc2n(CCC(F)(F)F)c1=O` (single isomer, unassigned) [Example 117, 6-[(3,4-Dihydroxypiperidin-1-yl)carbonyl]-3-ethyl-5-methyl-1-(3,3,3-trifluoropropyl)thieno [2,3-d]pyrimidine-2,4(1H,3H)-dione], the IC50 turned out to be 140 nM.

On to `CCn1c(=O)c2c(C(C)F)c(C(=O)N3CCC(C)(O)CC3)sc2n(CCC(F)(F)F)c1=O` (racemic) [Example 146, 3-Ethyl-5-(1-fluoroethyl)-6-[(4-hydroxy-4-methylpiperidin-1-yl)carbonyl]-1-(3,3,3-trifluoropropyl)thieno[2,3-d]pyrimidine-2,4(1H,3H)-dione], for which the 50% inhibitory concentration (IC50) was 40 nM.

`COC(Cn1c(=O)c2c(C)c(C(=O)N3CCC(O)CC3)sc2n(CCC(F)(F)F)c1=O)c1ccccc1` (racemic) [Example 46, 6-[(4-Hydroxypiperidin-1-yl)carbonyl]-3-(2-methoxy-2-phenylethyl)-5-methyl-1-(3,3,3-trifluoropropyl)thieno[2,3-d]pyrimidine-2,4(1H,3H)-dione (racemate)]: the concentration for half-maximal inhibition (IC50) worked out at 7.9 nM.

With `COC(Cn1c(=O)c2c(C)c(C(=O)N3CCC(O)CC3)sc2n(CCC(F)(F)F)c1=O)C(F)(F)F` (single isomer, unassigned) [Example 107, 6-[(4-Hydroxypiperidin-1-yl)carbonyl]-5-methyl-3-(3,3,3-trifluoro-2-methoxypropyl)-1-(3,3,3-trifluoropropyl)thieno[2,3-d]pyrimidine-2,4(1H,3H)-dione], the half-maximal inhibitory concentration (IC50) worked out at 45 nM.

On to `CCCn1c(=O)c2c(C)c(C(=O)N3CCC(C)(O)CC3)sc2n(CCC(F)(F)F)c1=O` [Example 76, 6-[(4-Hydroxy-4-methylpiperidin-1-yl)carbonyl]-5-methyl-3-propyl-1-(3,3,3-trifluoropropyl)thieno[2,3-d]pyrimidine-2,4(1H,3H)-dione], for which the IC50 amounted to 27 nM.

Consider `CCCn1c(=O)c2c(C)c(C(=O)N3CCC(C)(O)CC3)sc2n(CCOC(F)(F)F)c1=O` [Example 79, 6-[(4-Hydroxy-4-methylpiperidin-1-yl)carbonyl]-5-methyl-3-propyl-1-[2-(trifluoromethoxy)ethyl]thieno[2,3-d]pyrimidine-2,4(1H,3H)-dione], for which the concentration for half-maximal inhibition (IC50) was determined as 8 nM.

Turning to `O=C1CN(C(=O)c2sc3c(c2C(F)F)c(=O)n(CCc2ccccc2)c(=O)n3CCC(F)(F)F)CCN1` [Example 97, 5-(Difluoromethyl)-6-[(3-oxopiperazin-1-yl)carbonyl]-3-(2-phenylethyl)-1-(3,3,3-trifluoropropyl)thieno[2,3-d]pyrimidine-2,4(1H,3H)-dione], the IC50 came to 7 nM.

For `CCn1c(=O)c2c(C)c(C(=O)N3[C@@H]4CC[C@H]3CC(O)C4)sc2n(CCC(F)(F)F)c1=O` (stereo partly shown) [Example 23, 3-Ethyl-6-[(3-hydroxy-8-azabicyclo[3.2.1]oct-8-yl)carbonyl]-5-methyl-1-(3,3,3-trifluoropropyl)thieno[2,3-d]pyrimidine-2,4(1H,3H)-dione], the IC50 was found to be 43 nM.

For `COCCn1c(=O)c2c(C)c(C(=O)N3CCC(O)CC3)sc2n(CCC(F)(F)F)c1=O` [Example 62, 6-[(4-Hydroxypiperidin-1-yl)carbonyl]-3-(2-methoxyethyl)-5-methyl-1-(3,3,3-trifluoropropyl)thieno[2,3-d]pyrimidine-2,4(1H,3H)-dione], the concentration for half-maximal inhibition (IC50) came out at 120 nM.
